From patent publication US9181172B2, “Rhein conjugates, preparation method thereof and their uses in producing medicines for treating diabetic nephrosis, intestinal adhesion and osteoarthritis” (priority 2005, dated 2015)

Assays:
obese hyperglycemia mice = test: Body weight and blood glucose of obese hyperglycemia mice; format: in vivo
Method: 9-week-old obese mice of hyperglycemia were randomly divided into: rhein sodium group, non-treatment group, rosiglitazone group, rhein lysine high-dose group and low-dose group, each group has 6 mice. Kunming mice of the same age were used as the control group, which were fed by conventional feedstuff with free food and water feeding. Rhein lysine conjugates [the dose is 180 mg/kg (0.418 mmol/kg) and 90 mg/kg (0.209 mmol/kg) for intragastric infusion, prepared with distilled water], dose of the rhein sodium group is 130 mg/kg (0.424 mmol/kg), the mixture was dissolved with distilled water, intragastric administration; rosiglitazone group (the dose is 4 mg/kg), the mixture was dissolved with distilled water, intragastric administration, and the rats of the other two groups were administered with the same volume of distilled water, once a day, 12 weeks of administration in succession. The animals' body weight and blood sugar were measured regularly, and statistical analysis was conducted.

[1] = test system: obese rats of high-fat and high-sugar diet; test: Body weight of obese rats of high-fat and high-sugar diet; format: in vivo
From the text: Group A: conventional diet, 4 weeks later, started to carry on intragastric administration, and the same volume of distilled water as the control, once daily, three weeks in succession.
Group B: high-fat high-sugar diet, 4 weeks later, started to carry on intragastric administration, and the same volume of distilled water as the model control, once daily, three weeks in succession.
Group C: high-fat high-sugar diet, 4 weeks later, started to carry on intragastric administration of rhein lysine conjugates [dose: 90 mg/kg (0.209 mmol/kg), prepared by distilled water], once daily, three weeks in succession.
Group D: high-fat high-sugar diet, 4 weeks later, started to carry on intragastric administration of rhein lysine conjugates [dose: 45 mg/kg (0.105 mmol/kg), prepared by distilled water], once daily, three weeks in succession.
Group E: high-fat high-sugar diet, 4 weeks later, started to carry on intragastric administration of rhein sodium [dose: 65 mg/kg (0.212 mmol/kg), prepared by distilled water], once daily, three weeks in succession.

diabetic rats = test: Diabetic nephrosis of obese diabetic rats (high-fat high-sugar diet plus STZ); format: in vivo; conditions: for Urine protein / Kidney weight index (double kidney weight/body weight × 10^4) / Serum total cholesterol / Serum triacylglycerol / Steady blood sugar level / Steady insulin level / Weight / blood sugar: six months, ig 90 mg/kg
Method: Animal model of diabetic rats: after one month of high-fat high-sugar diet, the rats (about 180 g) were injected by sub-pathogenic dose (25 mg/kg) of streptozotocin (STZ) to induce the occurrence of diabetes. The model has the characteristics of moderate hyperglycemia, hyperlipidemia and insulin resistance as well as pathological changes of typical diabetic nephrosis.
• 1. Conventional feedstuff control group: distilled water. • 2. Diabetes model group: distilled water. • 3. Rhein lysine diabetes treatment group: a month after STZ injection, rhein lysine complex [prepared with distilled water, intragastric infusion for rats according to 90 mg/kg (0.209 mmol/kg) dose] was administered referred to treatment group 1. • 4. Rhein sodium diabetes treatment group: a month after STZ injection, rhein sodium [prepared with distilled water, intragastric infusion for rats, according to 65 mg/kg (0.212 mmol/kg) dose] was administered, referred to treatment group 2. • 5. Rhein lysine diabetes prevention group: one week after STZ injection, rhein lysine conjugates were administered [prepared with distilled water and intragastric infusion for rats, according to 90 mg/kg (0.209 mmol/kg) dose], referred to prevention group 1. • 6. Rhein sodium diabetes prevention group: one week after STZ injection, rhein sodium were administered [prepared with distilled water and intragastric infusion for rats, according to 65 mg/kg (0.212 mmol/kg ) dose], referred to prevention group 2.

[2] = Comparison of metal salts or conjugates hydro-acupuncture (water-carrier) preparation: pH value and clarity; format: physicochemical; conditions: 2.0 mg/ml in water, as dissolved
Method: Proper amount of different rhein or rhein-containing effective part metal salts or conjugates were put into a 10 ml volumetric flask, added with water, shaken and dissolved for constant volume, and then a water-carrier preparation was obtained. Rhein or rhein-containing effective part sodium salts or sylvan preparation are adjusted to the original pH with diluted hydrochloric acid and the results were shown in Table 4.

mice [3] = test: Acetic acid-induced writhing response in mice; format: in vivo; conditions: ig 200 mg/kg, 12 days
Method: Fifty Kunming mice, half male and half female, weighing 18-22 g each, were selected and randomly divided into five groups, namely, model control group, aspirin group, rhein sodium group, rhein glucosamine large dose group and small dose group, 10 mice for each group. The mice were administered with medicine by intragastric administration every day, 0.2 ml/10 g body weight, once every day, and administered for 12 days in succession. After the final administration of medicines, 30 minutes later, test was carried on according to the methods in the literature [Xu Shuyun, Methodology in Pharmacological Experiment (the 1st version): 882]. The inhibiting rate for writhing response was calculated.

mice [4] = test: Xylene-induced swelling of auricle in mice; format: in vivo; conditions: ig 200 mg/kg, 3 days
Method: Fifty male Kunming mice were selected, weighing 18-22 g each, and randomly divided into five groups, namely, model control group, aspirin group, rhein sodium group, rhein glucosamine large dose group and low dose groups. Each group had 10 mice respectively. The mice were administered with medicines by intragastric administration every day, for 0.2 ml/10 g body weight. The mice of the model control group were administered with equal volume of physiological saline, once every day, continuously administration for 3 days. After 60 minutes of the final administration, carried on test according to the method in the literature [Xu Shuyun, Methodology in Pharmacological Experiment (the 3rd version): 911]. The sweeling degree of auricle was calculated and statistical analysis was conducted.

mice [5] = test: Immune function in mice (clearance index, phagocytic index); format: in vivo; conditions: ig 20 mg/kg, 3 days
Method: Fifty Kunming mice, half male and half female, weighing 18-22 g each were selected and randomly divided into five groups, namely, model control group, cyclophosphamide group, rhein sodium group, rhein glucosamine large dose group and small dose group, 10 mice for each group. The mice were administered with medicines by intragastric administration, 0.2 ml/10 g body weight, once every day and administered for 3 days in succession. After the mice were administered with medicines, 30 minutes later, test was carried on according to the method in the literature [Xu Shuyun, Methodology in Pharmacological Experiment (the 3rd version): 934]. The […] and corrected phagocytic index α were calculated, and t-test was conducted for statistical analysis.

rats = test: Intestinal adhesion in rats; format: in vivo; conditions: 10 mg/kg once every two days, 7th day
Method: Rats were fasted for 12 h and models were built according to the methods in the literature [Xu Shuyun, Methodology in Pharmacological Experiment (the 3rd version): 1335]. The rats were randomly divided into five groups, namely, model control group, dexamethasone group, rhein sodium group, rhein glucosamine large dose group and low dose group. Each group included 12 rats. […] The rats of the model group were administered with the same volume of NS, while the rats of the positive control group were administered with dexamethasone, administered once every two days, dose: 10 mg/kg. The administration volume was the same as the treatment group. The rats were killed on the 7th day and carried on laparotomy. Adhesion degree was classified and scored respectively. The classification and score of the observed index-adhesion degree can refer to the five-grade classification method prepared by Nair, and determine the classification standard, see Schedule 13. Intestinal adhesion classification adopts Ridit analysis. The test results are as follows (Table 14): […]

mice [6] = test: Intestinal propulsion in mice; format: in vivo; conditions: dosage 9 mg/kg, intravenous injection
Method: Fifty mice, male, weighting from 18 to 22 g, were randomly divided into five groups, namely, model control group, domperidone group, rhein sodium group, rhein glucosamine large dose group and low dose group.
Each group has 10 mice respectively. The mice were fasted, but water was not prohibited, and then administered with medicines by intravenous injection. After that, tests were carried on immediately according to the methods in the literature[Xu Shuyun, Methodology in Pharmacological Experiment (the 3rd version): 1313]. The intestinal propulsive rates were calculated, and t test was used for the intergroup comparison.

[7] = baseline of high-dose group, ig 180 mg/kg once a day
[8] = baseline of low-dose group, ig 90 mg/kg once a day
[9] = prevention group and treatment group, six months after administration
[10] = baseline of group given ig 4 mg/kg once a day

NCCCCC(N)C(=O)O.O=C(O)c1cc(O)c2c(c1)C(=O)c1cccc(O)c1C2=O [Rhein lysine conjugate, Rhein Lysine Conjugate]
weight and blood sugar compared with the non-treatment group (obese hyperglycemia mice; 9 weeks after administration): extremely significant difference
Blood glucose prior to administration (obese hyperglycemia mice; [7]): 29.2 ± 3.6 mmol/L
Body weight prior to administration (obese hyperglycemia mice; [7]): 29.2 ± 1.6 g
Blood glucose prior to administration (obese hyperglycemia mice; [8]): 28.7 ± 5.3 mmol/L
Body weight prior to administration (obese hyperglycemia mice; [8]): 28.8 ± 1.6 g
Blood glucose 6 w after administration (obese hyperglycemia mice; ig 90 mg/kg once a day): 31.4 ± 4.9 mmol/L
Blood glucose 9 w after administration (obese hyperglycemia mice; ig 90 mg/kg once a day): 33.7 ± 5.6 mmol/L
Blood glucose 12 w after administration (obese hyperglycemia mice; ig 90 mg/kg once a day): 30.4 ± 4.2 mmol/L
Body weight 6 w after administration (obese hyperglycemia mice; ig 90 mg/kg once a day): 35.7 ± 1.7 g
Body weight 9 w after administration (obese hyperglycemia mice; ig 90 mg/kg once a day): 39.3 ± 1.2 g
Body weight 12 w after administration (obese hyperglycemia mice; ig 90 mg/kg once a day): 41.3 ± 1.6 g
Blood glucose 6 w after administration (obese hyperglycemia mice; ig 180 mg/kg once a day): 30.9 ± 4.2 mmol/L
Blood glucose 9 w after administration (obese hyperglycemia mice; ig 180 mg/kg once a day): 30.2 ± 5.3 mmol/L
Blood glucose 12 w after administration (obese hyperglycemia mice; ig 180 mg/kg once a day): 28.1 ± 5.4 mmol/L
Body weight 6 w after administration (obese hyperglycemia mice; ig 180 mg/kg once a day): 34.9 ± 1.6 g
Body weight 9 w after administration (obese hyperglycemia mice; ig 180 mg/kg once a day): 38.2 ± 1.3 g
Body weight 12 w after administration (obese hyperglycemia mice; ig 180 mg/kg once a day): 40.1 ± 1.4 g
The body weight increased 7 weeks after high-sugar high-fat diet ([1]; Group C, after three weeks ig 90 mg/kg once daily): 16.8 ± 4.8 g
The body weight increased 4 weeks after high-sugar high-fat diet ([1]; Group C, before start of ig 90 mg/kg): 15.3 ± 3.8 g
The body weight increased 7 weeks after high-sugar high-fat diet ([1]; Group D, after three weeks ig 45 mg/kg once daily): 17.7 ± 4.6 g
The body weight increased 4 weeks after high-sugar high-fat diet ([1]; Group D, before start of ig 45 mg/kg): 16.1 ± 4.2 g
kidney weight and kidney weight index compared with the model group (diabetic rats; [9]): significantly lower
serum cholesterol and triglyceride compared with the model group (diabetic rats; [9]): significantly lower
urine protein content compared with the model group (diabetic rats; [9]): significantly lower
blood sugar level compared with the model group (diabetic rats; prevention group, six months after administration): significantly lower
Urine protein (diabetic rats; preventive administration from one week after STZ): 10.23 ± 3.34 mg/24 h
Kidney weight index (double kidney weight/body weight × 10^4) (diabetic rats; preventive administration): 5.26 ± 0.74
Serum total cholesterol (diabetic rats; preventive administration): 2.78 ± 0.21 mM
Serum triacylglycerol (diabetic rats; preventive administration): 1.56 ± 0.32
Steady blood sugar level (diabetic rats; preventive administration): 6.2 ± 0.4 mmol/L
Steady insulin level (diabetic rats; preventive administration): 71.6 ± 3.5 uU/ml
Weight (diabetic rats; preventive administration): 248 ± 13 g
blood sugar (diabetic rats; preventive administration): 14.98 ± 5.9 mmol/L
Urine protein (diabetic rats; treatment from a month after STZ): 15.12 ± 5.68 mg/24 h
blood sugar level compared with the model group (diabetic rats; treatment group, six months after administration): no significant difference
Kidney weight index (double kidney weight/body weight × 10^4) (diabetic rats; treatment): 6.7 ± 0.78
Serum total cholesterol (diabetic rats; treatment): 3.56 ± 0.71 mM
Serum triacylglycerol (diabetic rats; treatment): 1.63 ± 0.39
Steady blood sugar level (diabetic rats; treatment): 5.6 ± 0.9 mmol/L
Steady insulin level (diabetic rats; treatment): 80 ± 3.5 uU/ml
Weight (diabetic rats; treatment): 228 ± 15 g
blood sugar (diabetic rats; treatment): 17.4 ± 5.6 mmol/L

O=C([O-])c1cc(O)c2c(c1)C(=O)c1cccc(O)c1C2=O.[K+] [Rhein sylvin]
PH value [2]: 9-10
clarity [2]: clear

CN(CCOc1ccc(CC2SC(=O)NC2=O)cc1)c1ccccn1 (centres unmarked) [Rosiglitazone]
Blood glucose prior to administration (obese hyperglycemia mice; [10]): 29.3 ± 4.7 mmol/L
Body weight prior to administration (obese hyperglycemia mice; [10]): 29.3 ± 1.7 g
Blood glucose 6 w after administration (obese hyperglycemia mice; ig 4 mg/kg once a day): 31.1 ± 4.9 mmol/L
Blood glucose 9 w after administration (obese hyperglycemia mice; ig 4 mg/kg once a day): 30.5 ± 4.5 mmol/L
Blood glucose 12 w after administration (obese hyperglycemia mice; ig 4 mg/kg once a day): 27.9 ± 3.8 mmol/L
Body weight 6 w after administration (obese hyperglycemia mice; ig 4 mg/kg once a day): 42.1 ± 1.9 g
Body weight 9 w after administration (obese hyperglycemia mice; ig 4 mg/kg once a day): 48.2 ± 1.5 g
Body weight 12 w after administration (obese hyperglycemia mice; ig 4 mg/kg once a day): 50.1 ± 1.8 g

CC(=O)Oc1ccccc1C(=O)O [aspirin]
Inhibiting rate (mice [3]): 65.6%
Times of writhing (mice [3]): 11.1 ± 6.3 per/20 min
inhibition rate (mice [4]): 48.9%
swelling degree of auricle (mice [4]): 9.1 ± 1.8 mg

O=P1(N(CCCl)CCCl)NCCCO1 (centres unmarked) [cyclophosphamide]
Clearance index (k) (mice [5]): 0.0192 ± 0.0102
Phagocytic index (α) (mice [5]): 4.0208 ± 0.6698

C[C@@H]1C[C@H]2[C@@H]3CCC4=CC(=O)C=C[C@]4(C)[C@@]3(F)[C@@H](O)C[C@]2(C)[C@@]1(O)C(=O)CO [dexamethasone]
Rating of adhesion degree 0 (rats; number of 12 rats with completely no adhesion): 1
Rating of adhesion degree III (rats; number of 12 rats with more than two adhering zones): 1
Rating of adhesion degree I (rats; number of 12 rats with one adhering zone): 2
Rating of adhesion degree IV (rats; number of 12 rats with organs adhering to abdominal wall directly): 0
Rating of adhesion degree II (rats; number of 12 rats with two adhering zones): 8

O=c1[nH]c2ccccc2n1CCCN1CCC(n2c(=O)[nH]c3cc(Cl)ccc32)CC1 [domperidone]
Propulsive rate (mice [6]): 55.42 ± 9.6 %

C[N+](C)(C)CC(O)CC(=O)[O-].O=C(O)c1cc(O)c2c(c1)C(=O)c1cccc(O)c1C2=O [rhein carnitine conjugate, Rhein Carnitine Conjugate]
PH value [2]: 6-7
clarity [2]: clear

CNC[C@H](O)[C@@H](O)[C@H](O)[C@H](O)CO.O=C(O)c1cc(O)c2c(c1)C(=O)c1cccc(O)c1C2=O [rhein meglumine conjugate, Rhein Meglumine Conjugate]
PH value [2]: 6-7
clarity [2]: clear
